pIC50: −log10 of the molar value.
Key:
integrin α4β7 = molecular target: T1, integrin α4β7 (Homo sapiens, UniProt P13612+P26010); assay: Integrin α4β7-mediated cell adhesion assay (RPM18866 cells on MAdCAM-1); type: cell-based; conditions: for pIC50: RPMI-8866 cells adhering to MAdCAM-1; for α4β1/α4β7: selectivity ratio of α4β1 IC50 to α4β7 IC50 in cell adhesion
T1 sequence (P13612 34-1032): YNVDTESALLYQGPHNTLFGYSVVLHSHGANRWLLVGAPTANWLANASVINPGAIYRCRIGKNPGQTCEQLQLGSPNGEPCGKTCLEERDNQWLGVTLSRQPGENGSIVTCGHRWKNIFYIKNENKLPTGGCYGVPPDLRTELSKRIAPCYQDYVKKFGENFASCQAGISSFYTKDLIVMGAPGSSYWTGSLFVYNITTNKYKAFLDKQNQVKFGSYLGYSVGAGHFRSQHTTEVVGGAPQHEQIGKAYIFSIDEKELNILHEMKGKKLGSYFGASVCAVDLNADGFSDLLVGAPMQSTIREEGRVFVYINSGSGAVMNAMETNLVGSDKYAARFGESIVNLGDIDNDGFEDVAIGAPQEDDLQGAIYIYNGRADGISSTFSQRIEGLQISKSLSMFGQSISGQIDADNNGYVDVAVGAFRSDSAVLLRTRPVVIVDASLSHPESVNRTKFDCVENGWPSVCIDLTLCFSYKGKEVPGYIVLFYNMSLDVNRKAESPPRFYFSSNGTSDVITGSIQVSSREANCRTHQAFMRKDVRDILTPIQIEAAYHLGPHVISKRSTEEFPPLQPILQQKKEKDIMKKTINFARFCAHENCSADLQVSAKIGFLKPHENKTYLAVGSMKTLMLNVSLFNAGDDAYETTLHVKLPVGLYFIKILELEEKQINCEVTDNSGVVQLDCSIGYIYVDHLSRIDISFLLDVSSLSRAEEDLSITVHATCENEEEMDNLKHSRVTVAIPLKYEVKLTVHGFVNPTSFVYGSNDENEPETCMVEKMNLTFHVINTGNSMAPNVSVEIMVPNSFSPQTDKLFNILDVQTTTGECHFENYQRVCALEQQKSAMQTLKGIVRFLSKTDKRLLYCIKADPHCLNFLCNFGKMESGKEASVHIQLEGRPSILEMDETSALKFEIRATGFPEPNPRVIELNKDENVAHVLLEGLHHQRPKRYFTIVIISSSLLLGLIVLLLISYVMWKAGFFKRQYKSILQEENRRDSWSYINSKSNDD
T1 sequence (P26010 20-798): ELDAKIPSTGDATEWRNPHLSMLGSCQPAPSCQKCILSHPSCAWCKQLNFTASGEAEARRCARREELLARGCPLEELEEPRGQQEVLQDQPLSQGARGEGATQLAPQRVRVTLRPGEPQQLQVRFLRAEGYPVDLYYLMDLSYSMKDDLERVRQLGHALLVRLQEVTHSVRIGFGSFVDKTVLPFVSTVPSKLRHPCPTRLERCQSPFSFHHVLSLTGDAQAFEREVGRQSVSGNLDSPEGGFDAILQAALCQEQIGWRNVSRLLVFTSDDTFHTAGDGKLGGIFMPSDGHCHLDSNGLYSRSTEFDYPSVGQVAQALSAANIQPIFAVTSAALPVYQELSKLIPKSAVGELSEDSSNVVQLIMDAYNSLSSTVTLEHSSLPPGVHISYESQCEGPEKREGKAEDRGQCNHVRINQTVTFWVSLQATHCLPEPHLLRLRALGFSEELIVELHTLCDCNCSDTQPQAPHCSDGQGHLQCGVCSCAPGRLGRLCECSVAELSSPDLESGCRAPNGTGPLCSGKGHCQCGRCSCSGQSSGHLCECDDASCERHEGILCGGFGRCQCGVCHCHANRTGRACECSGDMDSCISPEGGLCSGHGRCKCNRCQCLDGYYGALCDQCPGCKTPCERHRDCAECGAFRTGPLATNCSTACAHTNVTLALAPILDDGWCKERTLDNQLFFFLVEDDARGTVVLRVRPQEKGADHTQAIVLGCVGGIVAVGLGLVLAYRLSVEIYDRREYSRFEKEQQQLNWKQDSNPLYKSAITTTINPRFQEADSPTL
Description: MAdCAM-1 was formulated with TBS buffer to a final concentration of 2 μg/ml, 50 μl of the solution was transferred to a 96-well plate, and the plate was coated with same at 4° C. overnight. The plate was washed with TBS buffer three times, then 150 μl of a blocking solution (TBS buffer containing 1% BSA) was added, and the plate was blocked at 37° C. for 1 h. […] 50 μl of the cell suspension was transferred to a 96-well plate so that the cell density reached 2×10^5 cells/well. Then 1 μl of the compound at different concentrations or DMSO was added and the plate was incubated at 37° C. for 1 h or 2 h. The plate was washed with TBS buffer to remove non-adherent cells. 50 μl of a substrate (4-nitrophenyl-N-acetyl-β-D-glucosaminide) was added and the plate was incubated at 37° C. for 2 h. […] The IC50 value was calculated using GraphPad Prism 6 software.

integrin α4β1 = molecular target: T2, integrin α4β1 (Homo sapiens, UniProt P05556+P13612); assay: Integrin α4β1-mediated cell adhesion assay (Jurkat cells on VCAM); type: cell-based; conditions: Jurkat cells adhering to VCAM-1
T2 construct: Jurkat cells were collected, washed twice using DPBS buffer; endogenous in cells; host or cells: Jurkat cells
Description: VCAM was formulated into a final concentration of 0.5 μg/ml with a coating buffer, 50 μl of the solution was transferred to a 96-well plate, and the plate was coated with same at 4° C. overnight. The plate was washed with coating buffer three times, then 150 μl of a blocking solution (coating buffer containing 1% BSA) was added, and the plate was blocked at 37° C. for 1 h. […] 50 μl of the cell suspension was transferred to a 96-well plate so that the cell density reached 2×10^5 cells/well. Then 1 μl of the test compound at different concentration or DMSO was added and the plate was incubated at 37° C. for 1 h. The plate was washed with coating buffer to remove non-adherent cells. 50 μl of a substrate (4-nitrophenyl-N-acetyl-β-D-glucosaminide) was added and the plate was incubated at 37° C. for 2 h. […] The […] was calculated using GraphPad Prism 6 software. The results are shown in Table 1. • Coating buffer: DMEM+20 mM HEPES+0.4 mM MnC2 • Action buffer: DMEM+20 mM HEPES+0.1% BSA+0.4 mM MnCl2 • DMEM: dulbecco's modified eagle medium; • HEPES: 2-[4-(2-hydroxyethyl)piperazin-1-yl]ethanesulfonic acid

[1] = Pharmacokinetic test in mice; type: in vivo; conditions: male BALB/c mice
Description: Experimental animals: male BALB/c mice, 20-25 g, 6 mice/compound. Purchased from Chengdu Ddossy Experimental Animals Co., Ltd.
Test design: on the day of the test, 6 BALB/c mice were randomly grouped according to their body weights. The animals were fasted with water available for 12 to 14 h one day before the administration, and were fed 4 h after the administration.
Before and after the administration, 0.06 mL of blood was taken from the orbit of the animals under isoflurane anesthesia and placed in an EDTAK2 centrifuge tube. The blood was centrifuged at 5000 rpm and 4° C. for 10 min to collect the plasma. The blood collection time points for the intravenous group and intragastric administration group were: 0 min, 5 min, 15 min, 30 min, 1 h, 2 h, 4 h, 6 h, 8 h, and 24 h. Before analysis and detection, all samples were stored at −80° C. The samples were analyzed quantitatively by LC-MS/MS.

T2 sequence (P05556 21-798, one chain of several): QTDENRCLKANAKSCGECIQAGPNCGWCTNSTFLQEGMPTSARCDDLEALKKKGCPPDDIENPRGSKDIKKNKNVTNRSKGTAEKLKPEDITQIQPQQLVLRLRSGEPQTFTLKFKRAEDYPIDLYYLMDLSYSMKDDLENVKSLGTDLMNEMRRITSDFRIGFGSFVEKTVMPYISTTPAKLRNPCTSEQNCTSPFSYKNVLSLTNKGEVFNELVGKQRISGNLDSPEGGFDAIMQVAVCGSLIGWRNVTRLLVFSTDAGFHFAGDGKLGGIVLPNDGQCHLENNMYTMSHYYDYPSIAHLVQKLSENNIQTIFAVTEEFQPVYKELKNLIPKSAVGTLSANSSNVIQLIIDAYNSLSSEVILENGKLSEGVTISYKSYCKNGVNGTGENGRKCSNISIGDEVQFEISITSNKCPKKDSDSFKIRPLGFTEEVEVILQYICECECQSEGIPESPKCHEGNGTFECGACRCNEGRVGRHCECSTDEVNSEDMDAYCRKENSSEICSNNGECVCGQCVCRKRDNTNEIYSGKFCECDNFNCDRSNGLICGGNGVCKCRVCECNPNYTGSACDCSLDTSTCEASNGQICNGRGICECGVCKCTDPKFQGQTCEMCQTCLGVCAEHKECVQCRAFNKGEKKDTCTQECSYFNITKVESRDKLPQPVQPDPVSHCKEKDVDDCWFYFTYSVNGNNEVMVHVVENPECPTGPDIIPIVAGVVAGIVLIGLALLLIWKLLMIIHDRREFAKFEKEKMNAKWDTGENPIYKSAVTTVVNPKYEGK

Row | Structure (SMILES) | pIC50 (integrin α4β7) | α4β1/α4β7 (integrin α4β7) | pIC50 (integrin α4β1) | also measured
1 | Cc1cc(F)cc(C)c1-c1cc(C(CC(=O)O)NC(=O)C(CC(C)C)n2cc(CCN(C)C)c(C(F)(F)F)cc2=O)cc2nccn12 (stereo not shown) [Trifluoroacetate of compound 20-2] | > 9.30 | >100 | 7.44 | 
2 | Cc1cc(-c2c(C)cccc2C)cc(C(CC(=O)O)NC(=O)C(CC(C)C)n2cc(CCN3CC(CF)C3)cc(F)c2=O)c1F (stereo not shown) [Compound 13] | > 8.00 |  |  | 
3 | C#Cc1ncc(C(CC(=O)O)NC(=O)C(CC(C)C)n2cc(CCN3CC(F)C3)cc(F)c2=O)cc1-c1c(C)cccc1C (stereo not shown) [Compound 14] | > 9.30 | >500 | 6.90 | 
4 | Cc1cc(F)cc(C)c1-c1cc(C(CC(=O)O)NC(=O)C(CC(C)C)n2cc(CCN(C)C)c(C(F)(F)F)cc2=O)cc2c1CCC2 (stereo not shown) [Compound 30-2] | > 9.30 | 1011.7 | 7.04 | 
5 | C#Cc1cc(-c2c(C)cc(F)cc2C)cc(C(CC(=O)O)NC(=O)C(CC(C)C)n2cc(CCN(C)C)c(C(F)(F)F)cc2=O)c1F (stereo not shown) [Compound 26-2] | > 9.30 |  |  | 
6 | Cc1cc(-c2c(C)cc(F)cc2C)cc([C@H](CC(=O)O)NC(=O)[C@H](CC(C)C)n2cc(CCN(C)C)c(C(F)(F)F)cc2=O)c1F [Control compound A, reference compound] |  |  |  | F ([1]; intragastrically 10 mg/kg vs intravenously 1 mg/kg): 28.2%; clearance ([1]; mouse, intravenous, plasma, groups: intravenously 1 mg/kg, intragastrically 10 mg/kg (route for this parameter not stated)): 56 mL/min/kg; AUC ([1]; mouse, plasma, oral absorption results, groups: intravenously 1 mg/kg, intragastrically 10 mg/kg (route for this parameter not stated)): 830 ng·h/mL
7 | Cc1cc(C)c(-c2cc(C(CC(=O)O)NC(=O)C(CC(C)C)n3cc(CCN(C)C)c(C(F)(F)F)cc3=O)cn3ccnc23)c(C)c1 (stereo not shown) [Trifluoroacetate of compound 22-2] | > 8.00 |  |  | 
8 | Cc1ccn(C(CC(C)C)C(=O)NC(CC(=O)O)c2cc(-c3c(C)cccc3C)n3ccnc3c2)c(=O)c1 (stereo not shown) [Compound 9] | > 8.00 |  |  | 
